Data reported in ChEMBL document CHEMBL1144188, “Obovatol inhibits colorectal cancer growth by inhibiting tumor cell proliferation and inducing apoptosis” (Bioorg Med Chem, 2008).
Calls of active or inactive are those of the source. The calls are words filed in the database; no cut-off is given here.

Tests used:
SW-620 [1] = assay: Antitumor activity in human SW620 cells xenografted nude mouse assessed as decrease in tumor volume at 5 mg/kg/day, po after 16 days; type: functional
Mus musculus [2] = assay: Toxicity in SW480 cells xenografted nude mouse assessed as change in body weight 5 mg/kg/day, ip after 21 days; type: organism-based; parameters: route intraperitoneal; conditions: in vivo, 504 h
SW-620 [3] = assay: Antitumor activity in human SW620 cells xenografted nude mouse assessed as decrease in tumor volume at 5 mg/kg/day, po after 27 days; type: functional
SW-620 [4] = assay: Antitumor activity in human SW620 cells xenografted nude mouse assessed as decrease in tumor volume at 5 mg/kg/day, po after 5 days; type: functional
SW-620 [5] = assay: Antitumor activity in human SW620 cells xenografted nude mouse assessed as decrease in tumor volume at 5 mg/kg/day, po after 23 days; type: functional
SW-620 [6] = assay: Antitumor activity in human SW620 cells xenografted nude mouse assessed as decrease in tumor volume at 5 mg/kg/day, po after 10 days; type: functional
SW-620 [7] = assay: Induction of apoptosis in human SW620 cells assessed as chromosomal DNA fragmentation at […] after 48 hrs by FACS analysis; type: functional, cell-based
SW-620 [8] = assay: Antitumor activity against human SW620 cells at 30 uM after 96 hrs; type: functional; conditions: SW-620, 96 h
SW-620 [9] = assay: Antitumor activity against human SW620 cells at 100 uM after 48 hrs; type: functional; conditions: SW-620, 48 h
SW-620 [10] = assay: Antitumor activity against human SW620 cells at 100 uM after 72 hrs; type: functional; conditions: SW-620, 72 h
HT-29 = assay: Antiproliferative activity against human HT-29 cells after 48 hrs by MTS assay; type: functional, cell-based
SW-620 [11] = assay: Antitumor activity against human SW620 cells at 50 uM after 24 hrs; type: functional; conditions: SW-620, 24 h
MCF7 = assay: Antiproliferative activity against human MCF7 cells after 48 hrs by MTS assay; type: functional, cell-based
SW-620 [12] = assay: Antitumor activity against human SW620 cells at 50 uM after 72 hrs; type: functional; conditions: SW-620, 72 h
MDA-MB-231 [13] = assay: Induction of apoptosis in human MDA-MB-231 cells assessed as ROS production after 24 hrs; type: functional, cell-based
SW-620 [14] = assay: Antitumor activity in human SW620 cells xenografted nude mouse assessed as decrease in tumor volume at 5 mg/kg/day, ip after 21 days; type: functional; conditions: route intraperitoneal
SW-620 [15] = assay: Antitumor activity against human SW620 cells at 30 uM after 24 hrs; type: functional; conditions: SW-620, 24 h
SW-620 [16] = assay: Cell cycle arrest in human SW620 cells assessed as accumulation at subG1 phase at 50 uM after 72 hrs by FACS analysis; type: functional
SW-620 [17] = assay: Antitumor activity against human SW620 cells at 30 uM after 48 hrs; type: functional; conditions: SW-620, 48 h
SW-620 [18] = assay: Antitumor activity in human SW620 cells xenografted nude mouse assessed as decrease in tumor weight at 5 mg/kg/day, ip after 21 days; type: functional; parameters: scale not given: the % may be the effect or the level left; conditions: route intraperitoneal
SW-620 [19] = assay: Cell cycle arrest in human SW620 cells assessed as accumulation at S phase at 50 uM after 72 hrs by FACS analysis; type: functional
HCT-116 = assay: Antiproliferative activity against human HCT 116 cells after 48 hrs by MTS assay; type: functional, cell-based
SW-620 [20] = assay: Cell cycle arrest in human SW620 cells assessed as accumulation at G2/M phase at 50 uM after 72 hrs by FACS analysis; type: functional
SW-620 [21] = assay: Antitumor activity against human SW620 cells at 100 uM after 96 hrs; type: functional; conditions: SW-620, 96 h
DU-145 = assay: Antiproliferative activity against human DU145 cells after 48 hrs by MTS assay; type: functional, cell-based
SW-620 [22] = assay: Antitumor activity against human SW620 cells at 100 uM after 24 hrs; type: functional; conditions: SW-620, 24 h
K562 = assay: Antiproliferative activity against human K-562 cells after 48 hrs by MTS assay; type: functional, cell-based
SW-620 [23] = assay: Induction of apoptosis in human SW620 cells assessed as necrosis relative to control; type: functional
SW-620 [24] = assay: Effect on apoptosis-mediated morphological changes in human SW620 cells assessed as round cell formation; type: functional, cell-based
PC-3 = assay: Antiproliferative activity against human PC-3 cells after 48 hrs by MTS assay; type: functional, cell-based
SW-620 [25] = assay: Cell cycle arrest in human SW620 cells assessed as accumulation at G1 phase at 50 uM after 72 hrs by FACS analysis; type: functional
SW-620 [26] = assay: Antitumor activity against human SW620 cells at 50 uM after 48 hrs; type: functional; conditions: SW-620, 48 h
MDA-MB-231 [27] = assay: Antiproliferative activity against human MDA-MB-231 cells after 48 hrs by MTS assay; type: functional, cell-based
SW-620 [28] = assay: Antitumor activity against human SW620 cells at 50 uM after 96 hrs; type: functional; conditions: SW-620, 96 h
SW-620 [29] = assay: Antitumor activity against human SW620 cells at 30 uM after 72 hrs; type: functional; conditions: SW-620, 72 h
MDA-MB-231 [30] = assay: Induction of apoptosis in human MDA-MB-231 cells assessed as morphological changes in presence of N-acetyl-cysteine after 24 hrs; type: functional, cell-based
SW-620 [31] = assay: Induction of apoptosis in human SW620 cells assessed as apoptotic cell form at 50 uM relative to control; type: functional
DLD-1 = assay: Antiproliferative activity against human DLD1 cells after 48 hrs by MTS assay; type: functional, cell-based
SW-620 [32] = assay: Antitumor activity in human SW620 cells xenografted nude mouse assessed as decrease in tumor volume at 2 mg/kg, ip after 21 days; type: functional; parameters: scale not given: the % may be the effect or the level left; conditions: route intraperitoneal
Mus musculus [33] = assay: Toxicity in SW480 cells xenografted nude mouse assessed as change in body weight 2 mg/kg/day, ip after 21 days; type: organism-based; parameters: route intraperitoneal; conditions: in vivo, 504 h
SW-620 [34] = assay: Antitumor activity in human SW620 cells xenografted nude mouse assessed as decrease in tumor weight at 2 mg/kg, ip after 21 days; type: functional; parameters: scale not given: the % may be the effect or the level left; conditions: route intraperitoneal

C=CCc1ccc(O)c(-c2ccc(O)c(CC=C)c2)c1 [HONOKIOL]
Activity (SW-620 [1]): 270 mm3
Activity (Mus musculus [2]): Non-toxic
Activity (SW-620 [3]): 900 mm3
Activity (SW-620 [4]): 100 mm3
Activity (SW-620 [5]): 600 mm3
Activity (SW-620 [6]): 150 mm3

C=CCc1ccc(Oc2cc(CC=C)cc(O)c2O)cc1 [OBOVATOR]
Activity (SW-620 [7]): Active
inhibition at 30 µM (SW-620 [8]): 18%
inhibition at 100 µM (SW-620 [9]): 92%
Activity (SW-620 [1]): 150 mm3
inhibition at 100 µM (SW-620 [10]): 97%
Activity (HT-29): Active
Activity (Mus musculus [2]): Non-toxic
inhibition at 50 µM (SW-620 [11]): 21%
Activity (SW-620 [3]): 750 mm3
Activity (MCF7): Active
inhibition at 50 µM (SW-620 [12]): 64%
Activity (MDA-MB-231 [13]): inactive
Activity (SW-620 [14]): 277 mm3
inhibition at 30 µM (SW-620 [15]): 7%
Activity (SW-620 [16]): 23.36%
inhibition at 30 µM (SW-620 [17]): 26%
Activity (SW-620 [4]): 100 mm3
Activity (SW-620 [18]): 44.6%
Activity (SW-620 [19]): 30.4%
Activity (HCT-116): Active
Activity (SW-620 [20]): 16%
inhibition at 100 µM (SW-620 [21]): 98%
Activity (DU-145): Active
inhibition at 100 µM (SW-620 [22]): 36%
Activity (K562): Active
Activity (SW-620 [23]): <12%
Activity (SW-620 [24]): Active
Activity (PC-3): Active
Activity (SW-620 [25]): 53.6%
inhibition at 50 µM (SW-620 [26]): 57%
Activity (MDA-MB-231 [27]): Active
Activity (SW-620 [5]): 400 mm3
inhibition at 50 µM (SW-620 [28]): 85%
inhibition at 30 µM (SW-620 [29]): 33%
Activity (MDA-MB-231 [30]): inactive
Activity (SW-620 [31]): <50%
Activity (SW-620 [6]): 130 mm3
Activity (DLD-1): Active

COc1cccc2c1C(=O)c1c(O)c3c(c(O)c1C2=O)C[C@@](O)(C(=O)CO)C[C@@H]3O[C@H]1C[C@H](N)[C@H](O)[C@H](C)O1 [DOXORUBICIN]
Activity (SW-620 [32]): 58%
Activity (Mus musculus [33]): 13.1%
Activity (SW-620 [34]): 53.7%
